Source: paper PMC9779606, “Synthesis, Structural Characterization and Biological Activity Evaluation of Novel Cu(II) Complexes with 3-(trifluoromethyl)phenylthiourea Derivatives” (International Journal of Molecular Sciences, 2022)

What was measured:
[1] = tested on: S. aureus 498; assay: MIC, hospital methicillin-resistant strains (MRSA); details: hospital MRSA strain S. aureus 498
[2] = tested on: S. epidermidis 511; assay: MIC, hospital methicillin-resistant strains (MRSE); details: hospital MRSE strain S. epidermidis 511
[3] = tested on: S. aureus 572; assay: MIC, hospital methicillin-resistant strains (MRSA); details: hospital MRSA strain S. aureus 572
[4] = tested on: S. epidermidis 515; assay: MIC, hospital methicillin-resistant strains (MRSE); details: hospital MRSE strain S. epidermidis 515
[5] = tested on: C. albicans ATCC 10231; assay: MIC, twofold serial microdilution, standard fungal strains; details: C. albicans ATCC 10231, standard strain
[6] = tested on: S. aureus 497; assay: MIC, hospital methicillin-resistant strains (MRSA); details: hospital MRSA strain S. aureus 497
[7] = tested on: S. epidermidis 432; assay: MIC, hospital methicillin-resistant strains (MRSE); details: hospital MRSE strain S. epidermidis 432
[8] = tested on: S. aureus NCTC 4163; assay: MIC, twofold serial microdilution, standard strains; details: S. aureus NCTC 4163, standard strain
[9] = tested on: S. aureus 586; assay: MIC, hospital methicillin-resistant strains (MRSA); details: hospital MRSA strain S. aureus 586
[10] = tested on: S. epidermidis 420; assay: MIC, hospital methicillin-resistant strains (MRSE); details: hospital MRSE strain S. epidermidis 420
[11] = tested on: P. aeruginosa ATCC 15442; assay: MIC, twofold serial microdilution, standard strains; details: P. aeruginosa ATCC 15442, standard strain
[12] = tested on: S. epidermidis 436; assay: MIC, hospital methicillin-resistant strains (MRSE); details: hospital MRSE strain S. epidermidis 436
[13] = tested on: S. epidermidis 433; assay: MIC, hospital methicillin-resistant strains (MRSE); details: hospital MRSE strain S. epidermidis 433
[14] = tested on: P. aeruginosa ATCC 27853; assay: MIC, twofold serial microdilution, standard strains; details: P. aeruginosa ATCC 27853, standard strain
[15] = tested on: M. tuberculosis H37Rv; assay: Tuberculostatic activity, Microplate Alamar Blue Assay (MABA); type: cell-based, Mycobacterium tuberculosis; details: M. tuberculosis H37Rv, standard strain, MABA
[16] = tested on: S. aureus 585; assay: MIC, hospital methicillin-resistant strains (MRSA); details: hospital MRSA strain S. aureus 585
[17] = tested on: S. aureus 567; assay: MIC, hospital methicillin-resistant strains (MRSA); details: hospital MRSA strain S. aureus 567
[18] = tested on: C. parapsilosis ATCC 22019; assay: MIC, twofold serial microdilution, standard fungal strains; details: C. parapsilosis ATCC 22019, standard strain
[19] = tested on: E. coli NCTC 10538; assay: MIC, twofold serial microdilution, standard strains; details: E. coli NCTC 10538, standard strain
[20] = tested on: S. epidermidis 510; assay: MIC, hospital methicillin-resistant strains (MRSE); details: hospital MRSE strain S. epidermidis 510
[21] = tested on: S. epidermidis 513; assay: MIC, hospital methicillin-resistant strains (MRSE); details: hospital MRSE strain S. epidermidis 513
[22] = tested on: S. epidermidis 435; assay: MIC, hospital methicillin-resistant strains (MRSE); details: hospital MRSE strain S. epidermidis 435
[23] = tested on: S. epidermidis ATCC 12228; assay: MIC, twofold serial microdilution, standard strains; details: S. epidermidis ATCC 12228, standard strain
[24] = tested on: S. aureus 481; assay: MIC, hospital methicillin-resistant strains (MRSA); details: hospital MRSA strain S. aureus 481
[25] = tested on: C. albicans ATCC 90028; assay: MIC, twofold serial microdilution, standard fungal strains; details: C. albicans ATCC 90028, standard strain
[26] = tested on: S. aureus 573; assay: MIC, hospital methicillin-resistant strains (MRSA); details: hospital MRSA strain S. aureus 573
[27] = tested on: S. aureus 496; assay: MIC, hospital methicillin-resistant strains (MRSA); details: hospital MRSA strain S. aureus 496
[28] = tested on: S. epidermidis 469; assay: MIC, hospital methicillin-resistant strains (MRSE); details: hospital MRSE strain S. epidermidis 469
[29] = tested on: M. tuberculosis Spec. 192; assay: Tuberculostatic activity, Microplate Alamar Blue Assay (MABA); type: cell-based, Mycobacterium tuberculosis; details: M. tuberculosis Spec. 192, patient isolate fully sensitive to tuberculostatics, MABA
[30] = tested on: HaCaT (immortalized human keratinocytes); assay: Cytotoxicity, MTT assay; type: cell-based; details: normal cells, 72 h, mean SD
Protocol: MTT assay was performed as previously described. Experiments were repeated three times. […] Decreased relative MTT level means decreased cell viability.

SMILES | MIC [1] [µg/mL] | MIC [2] [µg/mL] | MIC [3] [µg/mL] | MIC [4] [µg/mL] | MIC [5] [µg/mL] | MIC [6] [µg/mL] | MIC [7] [µg/mL] | MIC [8] [µg/mL] | MIC [9] [µg/mL] | MIC [10] [µg/mL] | MIC [11] [µg/mL] | MIC [12] [µg/mL] | MIC [13] [µg/mL] | MIC [14] [µg/mL] | MIC [15] [µg/mL] | MIC [16] [µg/mL] | MIC [17] [µg/mL] | MIC [18] [µg/mL] | MIC [19] [µg/mL] | MIC [20] [µg/mL] | also measured
CC(NC(=S)[N-]c1cccc(C(F)(F)F)c1)c1ccccc1.CC(NC(=S)[N-]c1cccc(C(F)(F)F)c1)c1ccccc1.[Cu+2] (racemic) [Cu2, Copper(II) Complex with 1-(1-phenylethyl)-3-[3-(trifluoromethyl)phenyl]thiourea] | 8 | 16 | 16 | 16 | 128 | 16 | 16 | 32 | 8 | 16 | 128 | 16 | 16 | ≥256 | 8 | 8 | 8 | 128 | ≥256 | 16 | MIC [21]: 16 µg/mL; MIC [22]: 16 µg/mL; MIC [23]: 32 µg/mL; MIC [24]: 16 µg/mL; MIC [25]: 128 µg/mL; MIC [26]: 8 µg/mL; MIC [27]: 16 µg/mL; MIC [28]: 32 µg/mL; MIC [29]: 8 µg/mL; IC50 [30]: 220 ± 3.4 µM
FC(F)(F)c1cccc([N-]C(=S)NCCc2ccccc2)c1.FC(F)(F)c1cccc([N-]C(=S)NCCc2ccccc2)c1.O.[Cu+2] [Cu1, Copper(II) Complex with 1-(2-phenylethyl)-3-[3-(trifluoromethyl)phenyl]thiourea] | 64 | 128 | 64 | 128 | 128 | 64 | 64 | 64 | 64 | 64 | 128 | 128 | 64 | 128 | 16 | 64 | 64 | 64 | ≥256 | 64 | MIC [21]: 64 µg/mL; MIC [22]: 64 µg/mL; MIC [23]: 64 µg/mL; MIC [24]: 64 µg/mL; MIC [25]: 128 µg/mL; MIC [26]: 64 µg/mL; MIC [27]: 64 µg/mL; MIC [28]: 64 µg/mL; MIC [29]: 16 µg/mL; IC50 [30]: 421 ± 5.2 µM
FC(F)(F)c1cccc([N-]C(=S)NCc2ccccc2)c1.FC(F)(F)c1cccc([N-]C(=S)NCc2ccccc2)c1.[Cu+2] [Cu3, Copper(II) Complex with 1-benzyl-3-[3-(trifluoromethyl)phenyl]thiourea] | 64 | 64 | 64 | 64 | 32 | 64 | 64 | 64 | 64 | 64 | ≥256 | 64 | 64 | ≥256 | 16 | 64 | 64 | 32 | ≥256 | 64 | MIC [21]: 64 µg/mL; MIC [22]: 64 µg/mL; MIC [23]: 64 µg/mL; MIC [24]: 64 µg/mL; MIC [25]: 32 µg/mL; MIC [26]: 64 µg/mL; MIC [27]: 64 µg/mL; MIC [28]: 64 µg/mL; MIC [29]: 16 µg/mL; IC50 [30]: 65 ± 4.7 µM
FC(F)(F)c1cccc([N-]C(=S)Nc2cccc(Br)c2)c1.FC(F)(F)c1cccc([N-]C(=S)Nc2cccc(Br)c2)c1.[Cu+2] [Cu4, Copper(II) Complex with 1-(3-bromophenyl)-3-[3-(trifluoromethyl)phenyl] thiourea] | 8 | 8 | 8 | 8 | ≥256 | 8 | 8 | 8 | 8 | 8 | ≥256 | 8 | 8 | 128 | 4 | 8 | 8 | ≥256 | 128 | 8 | MIC [21]: 8 µg/mL; MIC [22]: 8 µg/mL; MIC [23]: 8 µg/mL; MIC [24]: 8 µg/mL; MIC [25]: ≥256 µg/mL; MIC [26]: 8 µg/mL; MIC [27]: 8 µg/mL; MIC [28]: 8 µg/mL; MIC [29]: 4 µg/mL; IC50 [30]: 388 ± 4.4 µM
O.O=[N+]([O-])c1cc(NC(=S)[N-]c2cccc(C(F)(F)F)c2)ccc1Cl.O=[N+]([O-])c1cc(NC(=S)[N-]c2cccc(C(F)(F)F)c2)ccc1Cl.[Cu+2] [Cu5, Copper(II) Complex with 1-(4-chloro-3-nitrophenyl)-3-[3-(trifluoromethyl)phenyl]thiourea] | 2 | 4 | 2 | 4 | 128 | 2 | 2 | 4 | 4 | 4 | 128 | 2 | 2 | >256 | 4 | 4 | 2 | 128 | >256 | 4 | MIC [21]: 2 µg/mL; MIC [22]: 2 µg/mL; MIC [23]: 4 µg/mL; MIC [24]: 2 µg/mL; MIC [25]: 128 µg/mL; MIC [26]: 2 µg/mL; MIC [27]: 2 µg/mL; MIC [28]: 4 µg/mL; MIC [29]: 4 µg/mL; IC50 [30]: 134 ± 2.9 µM
